Measurements taken from ChEMBL document CHEMBL1201862, “PubChem BioAssay data set” (2004).
Blank lines part the entries; values can stand above or below the molecule they belong to. The source made the active and inactive calls.

Legend:
H9c2 = test: cells; format: functional, cell-based; conditions: Rattus norvegicus, H9c2, Myocardium;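 further: confirmatory concentration-response retest of ultra-high-throughput screening hits for modulation of myocardial damage; cell death induced by hydrogen peroxide oxidative stress; compound pretreatment for 60 min then peroxide exposure for 2 h; potency is for protecting the cells against peroxide damage rather than for killing them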
Fatty acid synthase [1] = molecular target: T1, Fatty acid synthase (Homo sapiens, UniProt P49327); test: inhibition of human FAS-TE enzyme activity – biochemical, endpoint fluorescence intensity, uHTS hits, dose response (AID 624327); format: functional;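 further: fluorescence from hydrolysis of an O-methyl fluorescein acyl ester substrate by the enzyme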
Fatty acid synthase [2] = molecular target: T1, Fatty acid synthase; test: inhibition of human FAS-TE enzyme activity – biochemical, kinetic fluorescence intensity, dose response (AID 624326); format: functional;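 further: rate of fluorescence rise from hydrolysis of a fluorogenic O-methyl fluorescein ester substrate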
[3] = blockers of HIV-1 envelope-mediated cell-cell fusion – cherry-pick, dose response (AID 652057); format: functional, cell-based
[4] = blockers of HIV-1 ZM109 envelope-driven cell-cell fusion – HeLa effector, CEM target cells, luciferase, cherry-pick, dose response (AID 652058); format: functional, cell-based;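 further: luciferase signal from HIV-1 Env mediated cell-cell fusion of effector and target cells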
[5] = off-target signal loss in HeLa-CEM21 co-culture – HeLa F-luc CTL cells, cherry-picked, counter-screen for HIV-1 Env fusion inhibitor project, dose response (AID 652040); format: functional, cell-based;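 further: potency for signal decrease marking cytotoxic or nonspecific inhibition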
[6] = HIV-1 AD8 envelope cell-cell fusion blockers – cherry-pick, dose response (AID 652062); format: functional, cell-based;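 further: luciferase signal from cell-cell fusion driven by HIV-1 clade B AD8 Env; potency is for inhibitors of fusion seen as a drop in luminescence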
[7] = molecular target: T2, RNA-binding protein pos-1 (Caenorhabditis elegans, UniProt G5EF15); test: disruptors of C. elegans POS-1 RNA interaction – biochemical, fluorescence polarization, dose response (AID 1964);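 further: purified POS-1 fused to maltose binding protein made in E. coli; potency of compounds blocking POS-1 binding to fluorescent RNA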
T2 sequence (G5EF15 whole entry): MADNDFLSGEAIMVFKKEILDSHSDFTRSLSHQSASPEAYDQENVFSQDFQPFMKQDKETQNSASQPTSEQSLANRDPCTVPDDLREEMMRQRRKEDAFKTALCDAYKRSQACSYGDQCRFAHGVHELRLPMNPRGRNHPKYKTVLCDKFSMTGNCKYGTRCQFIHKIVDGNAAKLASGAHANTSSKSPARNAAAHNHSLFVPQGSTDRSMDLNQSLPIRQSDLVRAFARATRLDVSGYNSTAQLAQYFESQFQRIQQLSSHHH

[8] = molecular target: T3, Zinc finger protein mex-5 (Caenorhabditis elegans, UniProt Q9XUB2); test: potency of MEX-5 RNA-binding blockers – biochemical, C. elegans, fluorescence polarization, dose response (AID 1960)
T3 sequence (Q9XUB2 whole entry): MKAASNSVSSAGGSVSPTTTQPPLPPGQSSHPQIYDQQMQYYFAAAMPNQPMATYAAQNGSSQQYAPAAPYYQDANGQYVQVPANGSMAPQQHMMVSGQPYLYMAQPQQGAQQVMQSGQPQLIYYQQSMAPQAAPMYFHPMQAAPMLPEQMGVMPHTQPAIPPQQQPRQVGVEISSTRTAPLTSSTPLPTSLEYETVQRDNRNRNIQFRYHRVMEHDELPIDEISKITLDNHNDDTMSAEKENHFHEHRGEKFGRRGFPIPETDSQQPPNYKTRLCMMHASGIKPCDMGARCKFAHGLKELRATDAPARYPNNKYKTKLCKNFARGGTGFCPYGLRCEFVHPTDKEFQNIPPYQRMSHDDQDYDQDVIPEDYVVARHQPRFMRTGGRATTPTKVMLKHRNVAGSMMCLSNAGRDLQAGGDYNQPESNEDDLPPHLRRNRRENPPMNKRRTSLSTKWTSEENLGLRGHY

[9] = molecular target: T4, Heat shock factor protein 1 (Mus musculus, UniProt P38532); test: decrease of HSF1-responsive luciferase luminescence – cell-based, NIH3T3, dose retest, confirmation (AID 2382); format: functional;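 further: NIH3T3 fibroblasts with HSF1-driven luciferase reporter stressed by proteasome inhibitor MG132; luminescence from HSF1-driven luciferase expression after 8 hours of MG132 stress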
T4 sequence (P38532 whole entry): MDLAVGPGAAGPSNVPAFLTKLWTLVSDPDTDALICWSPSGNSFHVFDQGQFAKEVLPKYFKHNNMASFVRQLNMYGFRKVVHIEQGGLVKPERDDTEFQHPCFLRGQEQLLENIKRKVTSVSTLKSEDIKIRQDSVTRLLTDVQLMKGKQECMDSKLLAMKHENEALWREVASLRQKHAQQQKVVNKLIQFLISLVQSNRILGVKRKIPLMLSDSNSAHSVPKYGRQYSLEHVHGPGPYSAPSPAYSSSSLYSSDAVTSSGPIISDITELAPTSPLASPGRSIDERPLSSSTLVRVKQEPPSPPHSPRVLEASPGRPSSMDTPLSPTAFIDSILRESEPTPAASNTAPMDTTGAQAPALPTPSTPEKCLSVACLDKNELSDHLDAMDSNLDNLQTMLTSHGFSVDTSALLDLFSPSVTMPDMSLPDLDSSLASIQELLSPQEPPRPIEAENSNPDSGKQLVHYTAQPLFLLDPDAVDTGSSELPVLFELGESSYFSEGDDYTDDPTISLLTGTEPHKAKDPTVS

[10] = viability of PTEN-deleted HCT116 cells – cell-based, HCT116 PTEN knockout, dose response (AID 1047); format: functional;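 further: HCT116 colon tumor cells with PTEN knocked out; cells exposed to compound for 60 hours before readout; potency for loss of cell viability measured by luminescence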
[11] = viability of HCT116 lacking mutant beta-catenin – cell-based, human colon tumor, dose response (AID 1045); format: functional;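 further: HCT116 colon tumor cells with beta catenin knocked out; cells exposed to compound for 60 hours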
[12] = test system: Streptococcus sp. 'group A'; test: Streptococcus pyogenes SK(-)GAS viability under kanamycin – luminescence, BacTiterGlo, confirmation, counter-screen for streptokinase expression inhibitor project, dose response (AID 1900); format: functional, organism-based
Streptococcus = test: GAS UMAA2166 growth inhibition – luminescence, BacTiterGlo, counter-screen for streptokinase expression inhibitor project, dose response (AID 1915); format: functional, organism-based;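 further: potency for reduction of bacterial viability or growth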
[13] = molecular target: T5, Corticotropin-releasing factor receptor 2/Corticotropin-releasing factor-binding protein (Homo sapiens, UniProt P24387+Q13324); test: Dose Response confirmation of uHTS hits for small molecule antagonists of the CRF-binding protein and CRF-R2 receptor complex.; format: functional; conditions: read-out: IC50_Mean
T5 sequence (Q13324 whole entry): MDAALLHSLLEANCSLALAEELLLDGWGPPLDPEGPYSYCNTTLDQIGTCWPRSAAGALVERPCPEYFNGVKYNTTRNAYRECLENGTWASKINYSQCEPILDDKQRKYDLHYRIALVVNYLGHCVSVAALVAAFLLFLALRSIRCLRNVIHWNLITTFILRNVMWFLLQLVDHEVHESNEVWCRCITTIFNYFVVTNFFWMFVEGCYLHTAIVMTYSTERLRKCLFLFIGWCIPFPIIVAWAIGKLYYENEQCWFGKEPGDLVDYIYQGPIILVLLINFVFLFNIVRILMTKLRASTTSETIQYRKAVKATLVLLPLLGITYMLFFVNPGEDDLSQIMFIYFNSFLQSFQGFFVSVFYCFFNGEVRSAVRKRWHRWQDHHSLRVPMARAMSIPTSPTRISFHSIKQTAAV
T5 sequence (P24387 whole entry): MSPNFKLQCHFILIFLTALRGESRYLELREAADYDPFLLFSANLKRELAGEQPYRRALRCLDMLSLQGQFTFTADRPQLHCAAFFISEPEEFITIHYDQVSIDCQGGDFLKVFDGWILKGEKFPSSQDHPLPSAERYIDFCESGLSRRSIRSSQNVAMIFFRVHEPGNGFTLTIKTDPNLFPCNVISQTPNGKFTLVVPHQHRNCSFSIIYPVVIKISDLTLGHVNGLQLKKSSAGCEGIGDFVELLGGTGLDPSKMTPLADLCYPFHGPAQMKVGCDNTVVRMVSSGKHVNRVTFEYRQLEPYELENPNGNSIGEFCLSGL

[14] = molecular target: T5, Corticotropin-releasing factor receptor 2/Corticotropin-releasing factor-binding protein; test: activators of CRF receptor 2 with binding protein – uHTS hits, confirmation (AID 602473); format: functional; conditions: read-out: EC50_Mean
[15] = reduction of Shn3 3'UTR-driven luciferase in osteoblasts – cell-based, Clone20 osteoblasts, firefly luciferase, cherry-picked, dose response (AID 624132); format: functional;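 further: firefly luciferase luminescence from reporter carrying the Shn3 3'UTR in osteoblasts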
[16] = non-specific 3'UTR reporter inhibition in Clone20-Shn3RL – cell-based, Renilla luciferase, cherry-picked, counter-screen for Shn3 inhibitor project, dose response (AID 624133); format: functional

T1 sequence (P49327 whole entry): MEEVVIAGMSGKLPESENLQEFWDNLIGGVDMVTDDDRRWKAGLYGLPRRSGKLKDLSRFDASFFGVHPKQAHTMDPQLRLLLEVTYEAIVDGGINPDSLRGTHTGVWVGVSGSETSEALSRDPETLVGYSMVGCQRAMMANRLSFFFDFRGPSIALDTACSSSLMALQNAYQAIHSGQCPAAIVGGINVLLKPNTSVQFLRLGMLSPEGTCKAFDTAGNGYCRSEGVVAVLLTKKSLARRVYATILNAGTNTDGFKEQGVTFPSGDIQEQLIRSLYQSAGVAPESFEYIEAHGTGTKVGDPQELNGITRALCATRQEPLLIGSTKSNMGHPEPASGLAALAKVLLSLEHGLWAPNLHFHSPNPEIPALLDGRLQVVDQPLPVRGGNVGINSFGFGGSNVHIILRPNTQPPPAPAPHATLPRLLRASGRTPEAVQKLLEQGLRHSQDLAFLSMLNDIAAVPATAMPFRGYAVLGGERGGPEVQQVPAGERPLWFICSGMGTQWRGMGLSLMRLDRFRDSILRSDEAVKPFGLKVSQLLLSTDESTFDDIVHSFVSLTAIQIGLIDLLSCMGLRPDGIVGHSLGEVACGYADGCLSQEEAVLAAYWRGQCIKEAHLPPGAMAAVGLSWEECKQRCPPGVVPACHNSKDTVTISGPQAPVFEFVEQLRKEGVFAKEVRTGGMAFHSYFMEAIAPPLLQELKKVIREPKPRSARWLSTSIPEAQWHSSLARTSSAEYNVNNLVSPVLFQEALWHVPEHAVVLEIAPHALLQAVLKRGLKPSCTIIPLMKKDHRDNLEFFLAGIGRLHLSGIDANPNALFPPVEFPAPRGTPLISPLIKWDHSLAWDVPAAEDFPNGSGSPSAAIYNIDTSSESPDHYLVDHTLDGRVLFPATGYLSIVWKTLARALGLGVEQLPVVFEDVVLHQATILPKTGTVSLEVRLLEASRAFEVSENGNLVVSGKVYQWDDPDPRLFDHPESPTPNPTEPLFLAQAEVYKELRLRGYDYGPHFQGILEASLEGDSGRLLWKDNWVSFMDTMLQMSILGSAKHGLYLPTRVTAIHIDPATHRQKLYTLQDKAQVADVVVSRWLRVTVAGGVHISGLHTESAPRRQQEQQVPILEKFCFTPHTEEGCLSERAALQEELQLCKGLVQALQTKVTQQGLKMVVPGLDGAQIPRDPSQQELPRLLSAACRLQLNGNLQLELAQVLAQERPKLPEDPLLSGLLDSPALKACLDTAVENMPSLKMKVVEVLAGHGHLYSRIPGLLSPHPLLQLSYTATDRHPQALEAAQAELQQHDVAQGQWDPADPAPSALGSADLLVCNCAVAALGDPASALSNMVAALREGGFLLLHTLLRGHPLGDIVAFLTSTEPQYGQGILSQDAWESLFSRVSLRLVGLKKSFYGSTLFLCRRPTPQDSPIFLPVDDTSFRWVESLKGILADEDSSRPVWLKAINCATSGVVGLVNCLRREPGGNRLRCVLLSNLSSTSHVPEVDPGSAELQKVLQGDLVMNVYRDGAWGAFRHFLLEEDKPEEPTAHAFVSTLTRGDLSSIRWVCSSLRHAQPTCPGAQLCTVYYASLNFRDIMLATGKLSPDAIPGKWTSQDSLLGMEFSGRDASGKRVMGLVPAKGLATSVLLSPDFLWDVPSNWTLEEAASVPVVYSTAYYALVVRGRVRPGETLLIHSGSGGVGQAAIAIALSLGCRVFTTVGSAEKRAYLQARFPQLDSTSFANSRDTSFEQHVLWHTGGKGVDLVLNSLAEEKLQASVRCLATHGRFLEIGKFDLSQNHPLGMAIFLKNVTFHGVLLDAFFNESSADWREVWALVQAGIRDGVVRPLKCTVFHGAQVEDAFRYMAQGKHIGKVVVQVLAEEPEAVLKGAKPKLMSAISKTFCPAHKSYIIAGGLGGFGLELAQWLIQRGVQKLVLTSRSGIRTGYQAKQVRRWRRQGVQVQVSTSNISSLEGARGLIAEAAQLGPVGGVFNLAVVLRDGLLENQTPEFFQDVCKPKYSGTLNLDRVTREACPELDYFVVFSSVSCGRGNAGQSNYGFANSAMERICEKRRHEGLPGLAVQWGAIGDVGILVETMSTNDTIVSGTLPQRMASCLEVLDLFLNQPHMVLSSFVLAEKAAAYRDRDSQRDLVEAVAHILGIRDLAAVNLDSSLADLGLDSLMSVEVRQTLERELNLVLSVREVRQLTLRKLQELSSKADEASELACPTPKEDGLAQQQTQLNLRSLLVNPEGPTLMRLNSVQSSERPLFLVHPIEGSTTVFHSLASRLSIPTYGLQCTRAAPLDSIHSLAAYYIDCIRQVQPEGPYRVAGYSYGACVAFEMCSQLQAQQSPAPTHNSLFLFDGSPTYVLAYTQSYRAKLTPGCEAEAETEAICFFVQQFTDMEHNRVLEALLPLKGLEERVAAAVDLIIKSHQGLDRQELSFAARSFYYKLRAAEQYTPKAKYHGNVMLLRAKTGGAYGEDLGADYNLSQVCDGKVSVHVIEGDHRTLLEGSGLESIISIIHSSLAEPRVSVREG

Compound: CSCCC(NS(=O)(=O)c1ccccc1)C(=O)OCc1cc(=O)oc2cc(O)ccc12 (stereo not drawn)
IC50 (H9c2): > 79 µM (inactive)

IC50 (Fatty acid synthase [1]): 12.2 µM (active)
IC50 (Fatty acid synthase [2]): 8.68 µM (active)
Compound: O=C(COc1ccc2c3c(c(=O)oc2c1)CCC3)N1CCN(c2ccccc2)CC1

Compound: COc1ccc(Cl)cc1NC(=O)CN(C)C(=O)CCCc1c[nH]c2ccccc12
AC50 [3]: 3.29 µM (active)
AC50 [4]: 5.13 µM (active)
AC50 [5]: 4.68 µM (active)
AC50 [6]: 4.6 µM (active)

EC50 [7]: > 300 µM (not active)
EC50 [8]: > 300 µM (not active)
Compound: CCOc1ccccc1N1CCN(C(=O)CNC(=O)c2ccccc2F)CC1

Compound: COc1ccc(CCn2c(=O)c3cccnc3n(Cc3ccc([N+](=O)[O-])cc3)c2=O)cc1OC
IC50 (H9c2): > 79 µM (inactive)

Compound: CCOc1ccc2nc(NC(=O)c3cc([N+](=O)[O-])ccc3N3CCOCC3)sc2c1
EC50 [9]: 15 µM (active)
EC50 [10]: 23.3 µM (active)
EC50 [11]: 48.5 µM (active)

Compound: O=C(CNC(=O)c1[nH]cnc1C(=O)NC(c1ccccc1)c1ccccc1)OCc1ccccc1
IC50 (H9c2): > 79 µM (inactive)

EC50 [7]: > 300 µM (not active)
EC50 [8]: 45.8 µM (active)
Compound: COc1ccc(OC)c(C2=C/C(=C/c3ccccn3)C(=O)O2)c1

EC50 [7]: > 300 µM (not active)
EC50 [8]: > 300 µM (not active)
Compound: Cc1cc(C=C2C(=O)c3ccccc3C2=O)c(C)n1-c1ccc(C(=O)O)cc1

Compound: COc1cc([N+](=O)[O-])cc(/C=N/NC(=O)c2cccnc2)c1O
EC50 [12]: 2.99 µM (active)
EC50 (Streptococcus): 1.76 µM (active)
IC50 (Fatty acid synthase [1]): 9.23 µM (active)
IC50 (Fatty acid synthase [2]): 9.94 µM (active)

IC50 (Fatty acid synthase [1]): 12.4 µM (active)
IC50 (Fatty acid synthase [2]): 14.5 µM (active)
Compound: C[C@H](NC(=O)C1CCN(S(=O)(=O)c2ccccc2)CC1)C(=O)NCc1ccc(Cl)c(Cl)c1

IC50 (Fatty acid synthase [1]): 44.9 µM (inactive)
IC50 (Fatty acid synthase [2]): 80 µM (inactive)
Compound: COc1ccc2[nH]c3c(c2c1)CCN1C(=O)C(CC(=O)NCCC2=CCCCC2)C[C@H](C(=O)N2CCOCC2)[C@@]31CCC1CCCC1 (stereo partly drawn)

EC50 [7]: > 300 µM (not active)
EC50 [8]: > 300 µM (not active)
Compound: COc1cc(C2C(C#N)=C(N)OC3=C2C(=O)CC(C)(C)C3)cc([N+](=O)[O-])c1O (stereo not drawn)

IC50 (Fatty acid synthase [1]): 6.55 µM (active)
IC50 (Fatty acid synthase [2]): 10.3 µM (active)
Compound: Cc1c(Cl)c(=O)oc2cc(OCC(=O)N3CCCC(C)C3)ccc12 (stereo not drawn)

Compound: O=C(Cn1nnc(-c2ccccc2Cl)n1)N/N=C/c1ccc(-c2cccc(Cl)c2)o1
EC50 [10]: 20.1 µM (active)
EC50 [11]: 39.1 µM (active)

Compound: CC(OC(=O)c1ccc(NC(=O)CC#N)cc1)C(=O)NCCC1=CCCCC1 (stereo not drawn)
AC50 [4]: 0.439 µM (active)

Compound: O=C(Nc1ccccc1)c1nc[nH]c1C(=O)NCCNC(=O)c1[nH]cnc1C(=O)Nc1ccccc1
IC50 (H9c2): > 79 µM (inactive)

Compound: COc1ccc(/C=C(\C#N)c2nc3cc(C)ccc3[nH]2)cc1Oc1ccc(C(F)(F)F)cc1[N+](=O)[O-]
EC50 [10]: 4.59 µM (active)
EC50 [11]: 8.78 µM (active)

Compound: COc1ccc(-c2csc3ncnc(Oc4ccc5c(C)cc(=O)oc5c4)c23)cc1
EC50 [10]: 24.8 µM (active)
EC50 [11]: 47.3 µM (active)

Compound: O=C(CSc1nc(O)c2ccccc2n1)c1ccc(O)cc1O
IC50 (H9c2): > 79 µM (inactive)

EC50 [7]: 166 µM (inconclusive)
EC50 [8]: > 300 µM (not active)
Compound: O=c1[nH]c(CSc2ncccn2)nc2c1cnn2-c1ccccc1

IC50 (Fatty acid synthase [1]): 8.28 µM (active)
IC50 (Fatty acid synthase [2]): 5.35 µM (active)
Compound: CC(C)(C)c1ccc(OCCC(=O)OCC(=O)NC2CCCCC2)cc1

Compound: COCCn1cnc2c(c1=O)c1nc3ccccc3nc1n2/N=C/c1cccc(OC)c1
IC50 (H9c2): 24.5 µM (active)
IC50 [13]: > 47.1 µM (inactive)
EC50 [14]: > 53 µM (inactive)

Compound: C=CCOC(=O)COc1ccc2c3c(c(=O)oc2c1)CCCC3
IC50 (H9c2): 14.5 µM (active)

Compound: Cc1ccc(-c2nnc(O)c3ccccc23)cc1S(N)(=O)=O
IC50 (H9c2): 21.8 µM (active)

Compound: COc1ccccc1N(C)S(=O)(=O)c1ccc(Cl)c(C(=O)NCC2(N(C)C)CCCCC2)c1
AC50 [3]: 2.92 µM (active)
AC50 [4]: 3.96 µM (active)
AC50 [5]: 5.54 µM (active)
AC50 [6]: 3.32 µM (active)

Compound: COC(=O)[C@]1(C)N[C@H](CN(C)C(=O)Nc2ccc(Cl)cc2)[C@@H]2C(=O)N(Cc3ccccc3)C(=O)[C@@H]21
AC50 [3]: 0.659 µM (active)
AC50 [4]: 1.12 µM (active)
AC50 [5]: 1.5 µM (active)
AC50 [6]: 1.3 µM (active)

Compound: CCCc1nc([N+](=O)[O-])c(S(=O)(=O)c2ccccc2)n1CC(C)C
AC50 [15]: 7.39 µM (active)
AC50 [16]: 25.9 µM (active)

Compound: CC[C@@]1(C(=O)OC)N[C@H](CN(C)C(=O)Nc2ccc(OC)cc2)[C@@H]2C(=O)N(Cc3ccccc3)C(=O)[C@@H]21
AC50 [3]: 1.1 µM (active)
AC50 [4]: 1.71 µM (active)
AC50 [5]: 1.46 µM (active)
AC50 [6]: 1.32 µM (active)

Compound: CCOC(=O)[C@@H]1[C@H]2COc3ccc(Br)cc3[C@@H]2N2C(=O)N(c3cccc(F)c3)C(=O)[C@@]12C
AC50 [3]: 2.7 µM (active)
AC50 [4]: 4.41 µM (active)
AC50 [5]: 2.45 µM (active)
AC50 [6]: 4.21 µM (active)

IC50 (Fatty acid synthase [1]): 33.4 µM (inactive)
IC50 (Fatty acid synthase [2]): 28.5 µM (inactive)
Compound: O=C(Oc1cccc(N2C(=O)C3C4c5ccccc5C(c5ccccc54)C3C2=O)c1)c1ccco1 (stereo not drawn)
